# Measured values as given in patent publication US20040002526A1, “Phospholipase D inhibitors and uses thereof” (Cell Therapeutics, Inc., priority 2002, published 2004).
# Biological target: T1, PLD (phospholipase D)
# T1 construct: fused on or other part: N-terminal polyhistidine tag (pFastBac HTc) on either enzyme
# Experiment: In vitro assay of PLD activity ([3H]-choline release from labelled PC)
# Format: biochemical, human
# Conditions: Table 1, monocyclic thiazolidinones of Formula I; PLD isoform not stated; read-out: IC50
# Protocol: Recombinant PLD1 and PLD2—Human PLD1 and PLD2 were isolated from Sf9 insect cells that had been infected with recombinant baculovirus vector, pFastBac™HTc vector (Life Technologies, Gaithersburg, Md.), containing PLD1 or PLD2 cDNAs.
# PLD1 activity was assayed by measuring the generation of [^3H]-choline from [choline-methyl^3H](16:0, 16:0)PC.
# The assay procedure for PLD2 was similar to that for PLD1, with the exception that arf1, PKC-α, and GTPγS were omitted from the reaction mixture. After addition of enzymes, the reactions were incubated for 1 hour at room temperature. Twenty microliters of 12% trichloroacetic acid (TCA) then were added to each sample, to stop the reaction and to precipitate the unreacted [choline-methyl^3H](16:0, 16:0)PC. Thereafter, the samples were passed through 0.65 μm Millipore 96 well filter plates to removed the excess [choline-methyl^3H](16:0, 16:0)PC. For each sample the filtrate (50 μl), which contained the [^3H]-choline released by PLD cleavage of PC, was analyzed using a TopCount™ Liquid Scintillation Counter, a product of Packard (Meriden, Conn.).
row,IC50,SMILES
1,6 µM,"Cc1ccc(CN2C(=O)/C(=C/c3ccc(-c4ccc(S(N)(=O)=O)cc4)o3)SC2=S)cc1 [Compound 38, 4-{5-[3-(4-methyl-benzyl)-4-oxo-2-thioxo-thiazolidin-5-ylidenemethyl]-furan-2-yl}-benzenesulfonamide]"
2,4 µM,"N#Cc1ccc(-c2ccc(/C=C3\SC(=S)N(Cc4cccnc4)C3=O)o2)cc1 [Compound 39, 4-[5-(4-oxo-3-pyridin-3-ylmethyl-2-thioxo-thiazolidin-5-ylidenemethyl)-furan-2-yl]-benzonitrile]"
3,8 µM,"CN(C)c1ccc(/C=C/C=C2\SC(=S)N(c3ccc(C(=O)O)cc3)C2=O)cc1 [Compound 40, 4-{5-[3-(4-dimethylamino-phenyl)-allylidene]-4-oxo-2-thioxo-thiazolidin-3-yl}-benzoic acid]"
4,2 µM,"O=C(O)c1ccc(N2C(=O)/C(=C/c3cc4ccccc4o3)SC2=S)cc1 [Compound 41, 4-(5-benzofuran-2-ylmethylene-4-oxo-2-thioxo-thiazolidin-3-yl)-benzoic acid]"

# Same assay, conditions: Table 2, bicyclic thiazolidinones of Formula II; PLD isoform not stated; read-out: IC50
row,IC50,SMILES
1,4.5 µM,"CCOC(=O)C1=C(C)N=c2s/c(=C\c3ccc(-c4ccc(C(=O)O)cc4)o3)c(=O)n2C1c1ccc(OC)c(OC)c1 (stereo not shown) [Compound 42, 2-[5-(4-Carboxy-phenyl)-furan-2-ylmethylene]-5-(3,4-dimethoxy-phenyl)-7-methyl-3-oxo-2,3-dihydro-5H-thiazolo[3,2-a]pyrimidine-6-carboxylic acid ethyl ester]"
2,2.7 µM,"CCOC(=O)C1=C(C)N=c2s/c(=C\c3ccc(-c4ccc(C(=O)O)cc4)o3)c(=O)n2C1c1ccc(N(C)C)cc1 (stereo not shown) [Compound 43, 2-[5-(4-Carboxy-phenyl)-furan-2-ylmethylene]-5-(4-dimethylamino-phenyl)-7-methyl-3-oxo-2,3-dihydro-5H-thiazolo[3,2-a]pyrimidine-6-carboxylic acid ethyl ester]"
3,2.3 µM,"CCOC(=O)C1=C(C)N=c2s/c(=C\c3ccc(-c4ccc(C(=O)O)cc4)o3)c(=O)n2C1c1ccc2c(c1)OCO2 (stereo not shown) [Compound 44, 5-Benzo[1,3]dioxol-5-yl-2-[5-(4-carboxy-phenyl)-furan-2-ylmethylene]-7-methyl-3-oxo-2,3-dihydro-5H-thiazolo[3,2-a]pyrimidine-6-carboxylic acid ethyl ester]"
4,1.9 µM,"CCOC(=O)C1=C(C)N=c2s/c(=C\c3ccc(-c4ccc(Cl)c(C(=O)O)c4)o3)c(=O)n2C1c1ccc(N(C)C)cc1 (stereo not shown) [Compound 45, 2-[5-(3-Carboxy-4-chloro-phenyl)-furan-2-ylmethylene]-5-(4-dimethylamino-phenyl)-7-methyl-3-oxo-2,3-dihydro-5H-thiazolo[3,2-a]pyrimidine-6-carboxylic acid ethyl ester]"
5,4.3 µM,"CCOC(=O)C1=C(C)N=c2s/c(=C\c3ccc(-c4cccc(C(=O)O)c4)o3)c(=O)n2C1c1ccccc1 (stereo not shown) [Compound 46, 2-[5-(3-Carboxy-phenyl)-furan-2-ylmethylene]-7-methyl-3-oxo-5-phenyl-2,3-dihydro-5H-thiazolo[3,2-a]pyrimidine-6-carboxylic acid ethyl ester]"
6,2 µM,"CCOC(=O)C1=C(C)N=c2s/c(=C\c3ccc(-c4cccc(C(=O)O)c4)o3)c(=O)n2C1c1ccc(OC)cc1 (stereo not shown) [Compound 47, 2-[5-(3-Carboxy-phenyl)-furan-2-ylmethylene]-5-(4-methoxy-phenyl)-7-methyl-3-oxo-2,3-dihydro-5H-thiazolo[3,2-a]pyrimidine-6-carboxylic acid ethyl ester]"
7,3.5 µM,CCOC(=O)C1=C(C)N=c2s/c(=C\c3ccc(-c4ccc(C(=O)O)cc4)o3)c(=O)n2C1c1ccc(C)cc1 (stereo not shown) [Compound 48]
8,2.8 µM,"CCOC(=O)C1=C(C)N=c2s/c(=C\c3ccc(-c4cccc(C(=O)O)c4)o3)c(=O)n2C1c1ccc(C)cc1 (stereo not shown) [Compound 49, 2-[5-(3-Carboxy-phenyl)-furan-2-ylmethylene]-7-methyl-3-oxo-5-p-tolyl-2,3-dihydro-5H-thiazolo[3,2-a]pyrimidine-6-carboxylic acid ethyl ester]"
9,3.4 µM,"CCOC(=O)C1=C(C)N=c2s/c(=C\c3ccc(-c4ccc(C(=O)O)cc4)o3)c(=O)n2C1c1ccc(Cl)cc1 (stereo not shown) [Compound 50, 2-[5-(4-Carboxy-phenyl)-furan-2-ylmethylene]-5-(4-chloro-phenyl)-7-methyl-3-oxo-2,3-dihydro-5H-thiazolo[3,2-a]pyrimidine-6-carboxylic acid ethyl ester]"
10,2.7 µM,"CCOC(=O)C1=C(C)N=c2s/c(=C\c3ccc(-c4cccc(C(=O)O)c4)o3)c(=O)n2C1c1ccc2c(c1)OCO2 (stereo not shown) [Compound 51, 5-Benzo[1,3]dioxol-5-yl-2-[5-(3-carboxy-phenyl)-furan-2-ylmethylene]-7-methyl-3-oxo-2,3-dihydro-5H-thiazolo[3,2-a]pyrimidine-6-carboxylic acid ethyl ester]"
11,4 µM,"CCOC(=O)C1=C(C)N=c2s/c(=C\c3ccc(-c4cccc(C(=O)O)c4)o3)c(=O)n2C1c1ccccc1Cl (stereo not shown) [Compound 52, 2-[5-(3-Carboxy-phenyl)-furan-2-ylmethylene]-5-(2-chloro-phenyl)-7-methyl-3-oxo-2,3-dihydro-5H-thiazolo[3,2-a]pyrimidine-6-carboxylic acid ethyl ester]"
12,0.7 µM,"CCOC(=O)C1=C(C)N=c2s/c(=C\c3ccc(-c4cccc(C(=O)O)c4)o3)c(=O)n2C1c1ccc(N(C)C)cc1 (stereo not shown) [Compound 55, 2-[5-(3-Carboxy-phenyl)-furan-2-ylmethylene]-5-(4-dimethylamino-phenyl)-7-methyl-3-oxo-2,3-dihydro-5H-thiazolo[3,2-a]pyrimidine-6-carboxylic acid ethyl ester]"
13,2.6 µM,"CCOC(=O)C1=C(C)N=c2s/c(=C/c3ccc(-c4ccc(Cl)c(C(=O)O)c4)o3)c(=O)n2C1c1ccccc1OC (stereo not shown) [Compound 56, 2-[5-(3-Carboxy-4-chloro-phenyl)-furan-2-ylmethylene]-5-(2-methoxy-phenyl)-7-methyl-3-oxo-2,3-dihydro-5H-thiazolo[3,2-a]pyrimidine-6-carboxylic acid ethyl ester]"
14,3.7 µM,"CCOC(=O)C1=C(C)N=c2s/c(=C\c3ccc(-c4ccc(C(=O)O)cc4)o3)c(=O)n2C1c1c(OC)ccc2ccccc12 (stereo not shown) [Compound 57, 2-[5-(4-Carboxy-phenyl)-furan-2-ylmethylene]-5-(2-methoxy-naphthalen-1-yl)-7-methyl-3-oxo-2,3-dihydro-5H-thiazolo[3,2-a]pyrimidine-6-carboxylic acid ethyl ester]"
15,4 µM,"CCOC(=O)C1=C(C)N=c2s/c(=C\c3ccc(-c4ccccc4C(=O)O)o3)c(=O)n2C1c1ccc(SC)cc1 (stereo not shown) [Compound 58, 2-[5-(2-Carboxy-phenyl)-furan-2-ylmethylene]-7-methyl-5-(4-methylsulfanyl-phenyl)-3-oxo-2,3-dihydro-5H-thiazolo[3,2-a]pyrimidine-6-carboxylic acid ethyl ester]"
16,4.1 µM,"CCOC(=O)C1=C(C)N=c2s/c(=C/c3ccc(-c4cccc(C(=O)O)c4)o3)c(=O)n2C1c1ccccc1OC (stereo not shown) [Compound 59, 2-[5-(3-Carboxy-phenyl)-furan-2-ylmethylene]-5-(2-methoxy-phenyl)-7-methyl-3-oxo-2,3-dihydro-5H-thiazolo[3,2-a]pyrimidine-6-carboxylic acid ethyl ester]"

# Same assay, conditions: Table 3, tricyclic thiazolidinones of Formula II; PLD isoform not stated; read-out: IC50
row,IC50,SMILES
1,3.6 µM,"Cc1cc2nc3s/c(=C\c4ccc(-c5ccc(O)c(C(=O)O)c5)o4)c(=O)n3c2cc1C [Compound 60, 5-[5-(6,7-Dimethyl-3-oxo-benzo[4,5]imidazo[2,1-b]thiazol-2-ylidenemethyl)-furan-2-yl]-2-hydroxy-benzoic acid]"
2,3.4 µM,"Cc1cc2nc3s/c(=C/c4ccc(-c5cccc(C(=O)O)c5)o4)c(=O)n3c2cc1C [Compound 61, 3-[5-(6,7-Dimethyl-3-oxo-benzo[4,5]imidazo[2,1-b]thiazol-2-ylidenemethyl)-furan-2-yl]-benzoic acid]"
